Common to all, as to assay: relative viability (nuclei count vs DMSO), 5 days (fraction); higher = more cells survive
Compound in test [1]: CCN1C(=O)C2=CC(=C(N=C2N(C1=O)C3CC3)N)C(=O)N + Nc1ncn([C@H]2C[C@H](O)[C@@H](CO)O2)c(=O)n1 [Decitabine] (partner 2 µM)
The gist of the method:
(§1)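 The day after seeding in 1536-well plates, lung cancer cell lines were treated by pin tool with a single drug, or with a fixed anchor-drug dose together with five library-drug doses (not always all listed) in √10 steps. After 5 days, a combined fix-and-stain solution (final 0.05% Triton X-100, 1% formaldehyde, 1 ug/ml Hoechst) was added. Nuclei counted on 4× images gave relative viability as treated counts over vehicle counts, reported as the median of duplicate plates.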

Compound in test [2]: CCN1C(=O)C2=CC(=C(N=C2N(C1=O)C3CC3)N)C(=O)N + COc1cc2c(Oc3ccc(NC(=O)C4(C(=O)Nc5ccc(F)cc5)CC4)cc3F)ccnc2cc1OCCCN1CCOCC1 [Foretinib] (partner 0.25 µM)
In a few lines:
as §1

Compound in test [3]: CCN1C(=O)C2=CC(=C(N=C2N(C1=O)C3CC3)N)C(=O)N + Cc1nc(Nc2ncc(C(=O)Nc3c(C)cccc3Cl)s2)cc(N2CCN(CCO)CC2)n1 [Dasatinib] (partner 0.075 µM)
In a few lines:
as §1

Compound in test [4]: CCN1C(=O)C2=CC(=C(N=C2N(C1=O)C3CC3)N)C(=O)N + CC1(C)CCC(c2ccc(Cl)cc2)=C(CN2CCN(c3ccc(C(=O)NS(=O)(=O)c4ccc(N[C@H](CCN5CCOCC5)CSc5ccccc5)c(S(=O)(=O)C(F)(F)F)c4)cc3)CC2)C1 [Navitoclax] (partner 0.5 µM)
The gist of the method: as §1

Compound in test [5]: CCN1C(=O)C2=CC(=C(N=C2N(C1=O)C3CC3)N)C(=O)N + O=C(c1cc(Cc2n[nH]c(=O)c3ccccc23)ccc1F)N1CCN(C(=O)C2CC2)CC1 [Olaparib] (partner 8 µM)
In a few lines: as §1

Data on seven cell lines can be found in the supplement of paper PMC10307832.

In the case of LXF-289, the relative viability in test [1] (first compound 0.253 µM) is 0.345; in test [1] (first compound 0.8 µM) it was 0.37; in test [1] (first compound 2.53 µM), 0.346; in test [1] (first compound 8 µM), 0.336; in test [2] (first compound 0.253 µM), 0.995; in test [2] (first compound 0.8 µM), 1. The relative viability was 0.966 in test [2] (first compound 2.53 µM); 1 in test [2] (first compound 8 µM); 0.229 in test [3] (first compound 0.253 µM); 0.348 in test [3] (first compound 0.8 µM); 0.28 in test [3] (first compound 2.53 µM); 0.212 in test [3] (first compound 8 µM). In addition, the relative viability turned out to be 0.93 in test [4] (first compound 0.253 µM); 0.951 in test [4] (first compound 0.8 µM); 1.01 in test [4] (first compound 2.53 µM); 0.95 in test [4] (first compound 8 µM); 0.957 in test [5] (first compound 0.253 µM); 1.07 in test [5] (first compound 0.8 µM). Besides, the relative viability in test [5] (first compound 2.53 µM) is 1.01; in test [5] (first compound 8 µM) it was 1.18.

Regarding NCI-H838, the relative viability stood at 0.469 in test [1] (first compound 0.253 µM); 0.426 in test [1] (first compound 0.8 µM); 0.411 in test [1] (first compound 2.53 µM); 0.451 in test [1] (first compound 8 µM); 1.07 in test [2] (first compound 0.253 µM); 0.989 in test [2] (first compound 0.8 µM). Also, the relative viability in test [2] (first compound 2.53 µM) was determined as 0.868; in test [2] (first compound 8 µM) it was 0.926; in test [3] (first compound 0.253 µM), 0.29; in test [3] (first compound 0.8 µM) it was 0.296; in test [3] (first compound 2.53 µM), 0.316; in test [3] (first compound 8 µM) it was 0.265. For the same cell line, the relative viability worked out at 1.21 in test [4] (first compound 0.253 µM); 1.19 in test [4] (first compound 0.8 µM); 1.13 in test [4] (first compound 2.53 µM); 1.09 in test [4] (first compound 8 µM); 0.737 in test [5] (first compound 0.253 µM); 0.764 in test [5] (first compound 0.8 µM). Also, the relative viability was found to be 0.746 in test [5] (first compound 2.53 µM) and 0.722 in test [5] (first compound 8 µM).

For NCI-H1437, the relative viability in test [1] (first compound 0.253 µM) came out at 0.654; in test [1] (first compound 0.8 µM), 0.578; in test [1] (first compound 2.53 µM) it was 0.591; in test [1] (first compound 8 µM), 0.509; in test [2] (first compound 0.253 µM), 1.23; in test [2] (first compound 0.8 µM), 1.21. Moreover, the relative viability in test [2] (first compound 2.53 µM) worked out at 1.19; in test [2] (first compound 8 µM), 1.21; in test [3] (first compound 0.253 µM), 0.404; in test [3] (first compound 0.8 µM), 0.367; in test [3] (first compound 2.53 µM), 0.464; in test [3] (first compound 8 µM), 0.418. Besides, the relative viability stood at 1.12 in test [4] (first compound 0.253 µM); 1.09 in test [4] (first compound 0.8 µM); 1.07 in test [4] (first compound 2.53 µM); 1.12 in test [4] (first compound 8 µM); 0.684 in test [5] (first compound 0.253 µM); 0.637 in test [5] (first compound 0.8 µM). Further, the relative viability in test [5] (first compound 2.53 µM) is 0.622; in test [5] (first compound 8 µM), 0.585.

SW 1573: the relative viability in test [1] (first compound 0.253 µM) came to 0.573; in test [1] (first compound 0.8 µM) it was 0.582; in test [1] (first compound 2.53 µM), 0.434; in test [1] (first compound 8 µM) it was 0.476; in test [2] (first compound 0.253 µM), 0.978; in test [2] (first compound 0.8 µM), 0.762. Moreover, the relative viability in test [2] (first compound 2.53 µM) stood at 0.832; in test [2] (first compound 8 µM), 0.933; in test [3] (first compound 0.253 µM), 0.564; in test [3] (first compound 0.8 µM), 0.411; in test [3] (first compound 2.53 µM), 0.483; in test [3] (first compound 8 µM) it was 0.464. In addition, the relative viability in test [4] (first compound 0.253 µM) was 0.949; in test [4] (first compound 0.8 µM), 0.977; in test [4] (first compound 2.53 µM), 0.919; in test [4] (first compound 8 µM), 0.979; in test [5] (first compound 0.253 µM), 0.748; in test [5] (first compound 0.8 µM) it was 0.431. Further, the relative viability in test [5] (first compound 2.53 µM) was 0.519; in test [5] (first compound 8 µM) it was 0.532.

Turning to EPLC-272H, the relative viability in test [1] (first compound 0.253 µM) turned out to be 0.362; in test [1] (first compound 0.8 µM), 0.376; in test [1] (first compound 2.53 µM) it was 0.399; in test [1] (first compound 8 µM), 0.379; in test [2] (first compound 0.253 µM), 0.84; in test [2] (first compound 0.8 µM), 0.662. Further, the relative viability in test [2] (first compound 2.53 µM) was 0.613; in test [2] (first compound 8 µM), 0.686; in test [3] (first compound 0.253 µM), 0.425; in test [3] (first compound 0.8 µM), 0.394; in test [3] (first compound 2.53 µM), 0.377; in test [3] (first compound 8 µM) it was 0.431. Also, the relative viability in test [4] (first compound 0.253 µM) amounted to 0.994; in test [4] (first compound 0.8 µM), 1.26; in test [4] (first compound 2.53 µM), 1.13; in test [4] (first compound 8 µM), 1.2; in test [5] (first compound 0.8 µM), 0.752; in test [5] (first compound 2.53 µM), 0.975. In test [5] (first compound 8 µM), the relative viability came to 1.08.

In the case of NCI-H647, the relative viability in test [1] (first compound 0.253 µM) is 0.444; in test [1] (first compound 0.8 µM), 0.411; in test [1] (first compound 2.53 µM), 0.458; in test [1] (first compound 8 µM) it was 0.433; in test [2] (first compound 0.253 µM), 1.23; in test [2] (first compound 0.8 µM), 1.14. Besides, the relative viability amounted to 1.07 in test [2] (first compound 2.53 µM); 1.23 in test [2] (first compound 8 µM); 0.182 in test [3] (first compound 0.253 µM); 0.176 in test [3] (first compound 0.8 µM); 0.172 in test [3] (first compound 2.53 µM); 0.16 in test [3] (first compound 8 µM). Also, the relative viability in test [4] (first compound 0.253 µM) was determined as 1.18; in test [4] (first compound 0.8 µM), 1.25; in test [4] (first compound 2.53 µM) it was 1.14; in test [4] (first compound 8 µM), 1.08; in test [5] (first compound 0.253 µM), 0.56; in test [5] (first compound 0.8 µM), 0.484. Further, the relative viability turned out to be 0.586 in test [5] (first compound 2.53 µM) and 0.741 in test [5] (first compound 8 µM).

For the cell line NCI-H322M, the relative viability in test [1] (first compound 0.253 µM) stood at 0.697; in test [1] (first compound 0.8 µM), 0.728; in test [1] (first compound 2.53 µM), 0.673; in test [1] (first compound 8 µM) it was 0.719; in test [2] (first compound 0.253 µM), 0.953; in test [2] (first compound 0.8 µM), 0.958. Moreover, the relative viability in test [2] (first compound 2.53 µM) worked out at 0.988; in test [2] (first compound 8 µM), 1.1; in test [3] (first compound 0.253 µM), 0.275; in test [3] (first compound 0.8 µM), 0.224; in test [3] (first compound 2.53 µM), 0.256; in test [3] (first compound 8 µM), 0.248. Also, the relative viability was 1.06 in test [4] (first compound 0.253 µM); 1.12 in test [4] (first compound 0.8 µM); 1.14 in test [4] (first compound 2.53 µM); 1.13 in test [4] (first compound 8 µM); 0.855 in test [5] (first compound 0.253 µM); 0.785 in test [5] (first compound 0.8 µM). In addition, the relative viability in test [5] (first compound 2.53 µM) turned out to be 0.753; in test [5] (first compound 8 µM), 0.822.
